system: not listed separately; test: Inhibition of tumor growth in 6C3HED lymphosarcoma inoculated mice following 150 mg/kg p.o. o.d.; type: functional; conditions: Mus musculus, route oral

**Q.** Which inhibition in vivo at 150 mg/kg does the source give for `O=C(Nc1ccc(Cl)cc1)NS(=O)(=O)c1csc2ccccc12` here?
**A.** 43%

**Q.** With `O=C(Nc1ccc(Cl)cc1)NS(=O)(=O)c1cc2ccccc2s1` as the compound, how does the inhibition in vivo at 150 mg/kg read?
**A.** 47%

**Q.** With `Cc1cccc2cc(S(=O)(=O)NC(=O)Nc3ccc(Cl)cc3)oc12` as the compound, how does the inhibition in vivo at 150 mg/kg read?
**A.** 21%

**Q.** With `O=C(Nc1ccc(Cl)cc1)NS(=O)(=O)c1cc2cccc(Br)c2o1` as the compound, how does the inhibition in vivo at 150 mg/kg read?
**A.** 18%

**Q.** For `Cc1ccc2sc(S(=O)(=O)NC(=O)Nc3ccc(Cl)cc3)cc2c1`, which inhibition in vivo at 150 mg/kg is on record?
**A.** 10%

**Q.** With `Cc1coc2ccc(S(=O)(=O)NC(=O)Nc3ccc(Cl)cc3)cc12` as the compound, how does the inhibition in vivo at 150 mg/kg read?
**A.** 44%

**Q.** Which inhibition in vivo at 150 mg/kg does the source give for `COc1cc(S(=O)(=O)NC(=O)Nc2ccc(Cl)cc2)cc2ccoc12` here?
**A.** 51%

**Q.** With `O=C(Nc1ccc(Cl)cc1)NS(=O)(=O)c1cc2ccccc2o1` as the compound, how does the inhibition in vivo at 150 mg/kg read?
**A.** 84%

**Q.** With `Cc1ccc2oc(S(=O)(=O)NC(=O)Nc3ccc(Cl)cc3)cc2c1` as the compound, how does the inhibition in vivo at 150 mg/kg read?
**A.** 6%

**Q.** For `O=C(Nc1ccc(Cl)cc1)NS(=O)(=O)c1cc2cc(Cl)ccc2o1`, which inhibition in vivo at 150 mg/kg is on record?
**A.** 40%

**Q.** Which inhibition in vivo at 150 mg/kg does the source give for `Cc1ccc(NC(=O)NS(=O)(=O)c2ccc3occc3c2)cc1` here?
**A.** 84%

**Q.** Which inhibition in vivo at 150 mg/kg does the source give for `O=C(Nc1ccc(Cl)c(Cl)c1)NS(=O)(=O)c1cc2ccccc2o1` here?
**A.** 28%

**Q.** For `Cc1cc2cc(S(=O)(=O)NC(=O)Nc3ccc(Cl)cc3)ccc2o1`, which inhibition in vivo at 150 mg/kg is on record?
**A.** 57%

**Q.** Which inhibition in vivo at 150 mg/kg does the source give for `COc1ccc2oc(S(=O)(=O)NC(=O)Nc3ccc(Cl)cc3)cc2c1` here?
**A.** 25%

**Q.** With `O=C(Nc1ccc(Cl)cc1)NS(=O)(=O)c1ccc2cc[nH]c2c1` as the compound, how does the inhibition in vivo at 150 mg/kg read?
**A.** 37%

**Q.** Which inhibition in vivo at 150 mg/kg does the source give for `O=C(Nc1ccc(Cl)cc1)NS(=O)(=O)c1cccc2occc12` here?
**A.** 84%

**Q.** Which inhibition in vivo at 150 mg/kg does the source give for `O=C(Nc1ccc(Cl)cc1)NS(=O)(=O)c1ccc2occc2c1` here?
**A.** 100%

**Q.** With `Cc1cc(S(=O)(=O)NC(=O)Nc2ccc(Cl)cc2)cc2ccoc12` as the compound, how does the inhibition in vivo at 150 mg/kg read?
**A.** 89%

**Q.** With `Cc1ccc(NC(=O)NS(=O)(=O)c2cc3ccccc3o2)cc1` as the compound, how does the inhibition in vivo at 150 mg/kg read?
**A.** 11%

**Q.** For `O=C(Nc1ccc(Br)cc1)NS(=O)(=O)c1cc2ccccc2o1`, which inhibition in vivo at 150 mg/kg is on record?
**A.** 48%

**Q.** Which inhibition in vivo at 150 mg/kg does the source give for `O=C(Nc1ccc(Cl)cc1)NS(=O)(=O)c1cc2ccccc2[nH]1` here?
**A.** 26%

system: Mus musculus; test: Percent inhibition is the ratio of tumor weight of treated animals at a dose 80 mg/kg given daily to 8 mice perorally versus the untreated control mice infected with 6C3HED lymphosarcoma; type: functional; conditions: route oral

**Q.** With `O=C(Nc1ccc(Cl)cc1)NS(=O)(=O)c1ccc2sccc2c1` as the compound, how does the inhibition in vivo at 80 mg/kg read?
**A.** 44%

system: Mus musculus; test: Percent inhibition is the ratio of tumor weight of treated animals at a dose 160 mg/kg given daily to 8 mice perorally versus the untreated control mice infected with 6C3HED lymphosarcoma; type: functional; conditions: route oral

**Q.** For `O=C(Nc1ccc(Cl)cc1)NS(=O)(=O)c1ccc2ccoc2c1`, which inhibition in vivo at 160 mg/kg is on record?
**A.** 100%
